Data taken from ChEMBL document CHEMBL1125674, “Crystal, solution, and molecular modeling structural properties and muscarinic antagonist activity of azaprophen” (J Med Chem, 1991).

How the values were obtained:
[1] = Inhibition of [3H]QNB binding towards muscarinic acetylcholine receptor in rat heart
[2] = (§1) Inhibition of [3H]pirenzepine binding towards muscarinic acetylcholine receptor in rat brain.
[3] = target: T1, Muscarinic acetylcholine receptor M1 (Homo sapiens, UniProt P11229); test: Inhibition of [3H]QNB binding to CHO cells bearing transfected muscarinic acetylcholine receptor M1; assay type: cell-based, Cricetulus griseus
T1 sequence (P11229 whole entry): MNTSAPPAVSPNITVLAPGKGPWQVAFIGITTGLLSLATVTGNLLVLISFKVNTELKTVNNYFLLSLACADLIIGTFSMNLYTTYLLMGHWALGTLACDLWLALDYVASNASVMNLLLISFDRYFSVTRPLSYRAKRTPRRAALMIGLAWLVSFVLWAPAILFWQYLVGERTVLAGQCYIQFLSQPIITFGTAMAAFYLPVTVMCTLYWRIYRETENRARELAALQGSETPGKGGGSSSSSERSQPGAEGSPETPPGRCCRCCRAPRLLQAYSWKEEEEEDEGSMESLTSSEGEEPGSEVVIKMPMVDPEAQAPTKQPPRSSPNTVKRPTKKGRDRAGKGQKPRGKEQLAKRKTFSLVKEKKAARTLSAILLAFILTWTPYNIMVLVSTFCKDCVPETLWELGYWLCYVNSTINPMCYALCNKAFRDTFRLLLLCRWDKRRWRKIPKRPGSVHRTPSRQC

[4] = as §1; assay type: tissue-based
[5] = target: T2, Muscarinic acetylcholine receptors; M1 & M2 (Homo sapiens, UniProt P11229+P08172); test: Inhibition of [3H]QNB binding towards muscarinic acetylcholine receptor in guinea pig ileum.; assay type: tissue-based, Cavia porcellus; conditions: target entry is the homologue from another species
T2 sequence (P11229 whole entry): T1 sequence (P11229 whole entry)
T2 sequence (P08172 whole entry): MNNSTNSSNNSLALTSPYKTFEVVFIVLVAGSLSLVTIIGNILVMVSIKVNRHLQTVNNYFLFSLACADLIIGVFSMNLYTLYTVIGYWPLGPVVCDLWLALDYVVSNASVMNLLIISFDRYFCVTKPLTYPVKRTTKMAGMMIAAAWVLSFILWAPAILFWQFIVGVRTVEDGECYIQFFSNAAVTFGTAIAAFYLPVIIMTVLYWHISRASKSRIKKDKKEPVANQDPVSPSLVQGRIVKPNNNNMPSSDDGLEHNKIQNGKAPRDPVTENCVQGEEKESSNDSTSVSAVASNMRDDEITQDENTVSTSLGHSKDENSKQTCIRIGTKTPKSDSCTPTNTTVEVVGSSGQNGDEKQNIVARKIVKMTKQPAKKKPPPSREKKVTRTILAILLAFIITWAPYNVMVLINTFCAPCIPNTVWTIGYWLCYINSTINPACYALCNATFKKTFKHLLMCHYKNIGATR

[6] = target: Muscarinic acetylcholine receptor M3 (Homo sapiens, UniProt P20309); test: Inhibition of [3H]QNB binding to CHO cells bearing transfected muscarinic acetylcholine receptor M3; assay type: cell-based, Cricetulus griseus
[7] = Inhibition of [3H]QNB binding towards muscarinic acetylcholine receptor in rat brain; assay type: tissue-based

Muscarinic acetylcholine receptor M3, sequence (P20309 whole entry, looked up): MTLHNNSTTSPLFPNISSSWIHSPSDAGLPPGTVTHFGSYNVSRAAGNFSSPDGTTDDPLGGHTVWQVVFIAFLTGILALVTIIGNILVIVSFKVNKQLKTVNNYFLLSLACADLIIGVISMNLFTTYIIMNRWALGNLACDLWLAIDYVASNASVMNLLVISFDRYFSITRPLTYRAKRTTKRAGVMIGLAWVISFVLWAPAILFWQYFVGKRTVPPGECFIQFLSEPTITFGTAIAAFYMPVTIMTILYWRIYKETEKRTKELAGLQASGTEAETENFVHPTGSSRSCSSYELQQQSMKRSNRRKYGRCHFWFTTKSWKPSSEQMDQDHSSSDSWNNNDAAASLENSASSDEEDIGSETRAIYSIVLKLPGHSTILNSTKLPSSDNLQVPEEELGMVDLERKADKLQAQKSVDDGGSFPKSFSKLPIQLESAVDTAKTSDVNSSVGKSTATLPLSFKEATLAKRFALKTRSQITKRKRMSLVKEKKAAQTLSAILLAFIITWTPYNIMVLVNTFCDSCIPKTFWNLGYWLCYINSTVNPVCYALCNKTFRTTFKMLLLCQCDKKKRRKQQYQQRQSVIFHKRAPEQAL

SMILES	Ki [1] [nM]	Ki [2] [nM]	Ki [3] [nM]	Ki [4] [nM]	Ki [5] [nM]	Ki [6] [nM]	Ki [7] [nM]
CN1[C@@H]2CC[C@H]1C[C@@H](OC(=O)C(CO)c1ccccc1)C2 (stereo partly drawn) [ATROPINE]	0.545	0.545	–	–	–	–	–
CN1CC2CC(OC(=O)C(C)(c3ccccc3)c3ccccc3)CC1C2 (stereo not drawn) [AZAPROPHEN]	0.13	–	0.088	0.196	0.279	0.472	0.118
